What all share (assay type): in vivo
The subject of assay [1] is barnyardgrass (Echinochloa crusgalli, ECHCG). In words: Pre-emerge greenhouse herbicide test, phytotoxicity rating. The conditions noted are these: Echinochloa crus-galli, pre-emergence, 336 h, 14 days after application, rating scale 0-100; for pest or weed control at 125 g/ha: Rate 125 g al/ha; for pest or weed control at 500 g/ha: Rate 500 g al/ha. The method, boiled down:
(§1)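 Seeds sown in sandy loam one day before track-sprayer application of acetone solutions at 125–1000 g ai/ha (187 l/ha), then surface-watered to incorporate and bottom-watered. Injury scored visually at 14 days on a 0–100 scale (0 no damage, 100 complete death).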

Assay [2] concerns common ragweed (Ambrosia artemisiifolia L., AMBEL). The description is as above. The following applies: 14 days after application, rating scale 0-100. The method, boiled down: as §1
In assay [3] the test system is large crabgrass (Digitaria sanguinalis, DIGSA). The description is as above. The conditions noted are these: Digitaria sanguinalis, pre-emergence, 336 h, 14 days after application, rating scale 0-100; for pest or weed control at 125 g/ha: Rate 125 g al/ha; for pest or weed control at 500 g/ha: Rate 500 g al/ha. An outline of the steps: as §1
Assay [4] concerns sicklepod (Cassia obtusifolia, CASOB). Described as above. The following applies: Senna obtusifolia, pre-emergence, 336 h, 14 days after application, rating scale 0-100; for pest or weed control at 125 g/ha: Rate 125 g al/ha; for pest or weed control at 500 g/ha: Rate 500 g al/ha. An outline of the steps: as §1
For assay [5], the system named is common ragweed (Ambrosia artemisiifolia L., AMBEL). Kind of assay: Post-emerge greenhouse herbicide test, phytotoxicity rating. The following applies: 14 days after application, scale 0-100. The method, boiled down: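 Plants at the 2-3 leaf stage, sown 8-21 days earlier, were track-sprayed post-emergence with compound in acetone plus 0.25% v/v non-ionic surfactant at 63-1000 g ai/ha (187 l/ha). Damage was rated at 14 days on a 0-100 scale (0 none, 100 all plants dead), for both crop injury and weed control.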

The subject of a further assay is Grass Weeds. Kind of assay: Pre-emergent application in combination with other herbicides, percent control of grass weeds. The conditions noted are these: 62.5 g ai/ha. The procedure: All plants were grown in 10 cm square plastic pots which were filled with a sandy loam soil mix. For preemerge tests, seeds were planted one day prior to application of the test compounds. Immediately after application, test units of the pre-emerge applications were watered at the soil surface to incorporate the test materials. Subsequently, these test units were bottom-watered.
All test compounds were dissolved in acetone and applied to the test units in a volume of 187 l/ha. […] Plants were arranged on a shelf so that the top of the canopy (post-emerge) or top of the soil surface (pre-emerge) was 40-45 cm below the nozzle. Pressurized air was used to force the test solution through the nozzle as it was mechanically advanced (via electrically driven chain drive) over the top of all test plants/pots. This application simulates a typical commercial field herbicide application.
At 14 days after application of the test materials, phytotoxicity ratings were recorded. A rating scale of 0-100 was used as previously described in Research Methods in Weed Science, 2nd edition, B. Truelove, Ed., Southern Weed Science Society, Auburn University, Auburn, Ala., 1977. Briefly, “0” corresponds to no damage and “100” corresponds to complete death of all plants in the test unit. This scale was used both to determine efficacy against weed species and damage to crop species. Herbicide activity data for various compounds of this invention, which are shown by compound number in Tables 1-9, are shown in Tables 13 and 14.
(Note: Weed species abbreviations are from the Composite List of Weeds published by the Weed Science Society of America, 1989.)
The following examples illustrate the utility of combinations of compounds of this invention and existing herbicides. The methods used are identical to those for the application of single compounds except the commercial formulations of existing herbicides were added to the spray mixture in the appropriate amounts before spraying.
Combination Example 1. Pre-emergent Application of Compound 9-1 with Metolachlor
Combination Example 2. Pre-emergent Application of Compound 9-1 with Dimethenamid

A word on the pest or weed control: it is how far the test organism was held down. A high value points to a strong effect. Regarding `O=c1n(-c2cc(Oc3ncccc3C(F)(F)F)c(Cl)cc2F)c(=S)n2n1CCCC2` [Compound 8-18, 2-[4-chloro-2-fluoro-5-(3-trifluoromethyl-2pyridyloxy)phenyl]hexahydro-3-thioxo-1H-[1,2,4]triazolo[1,2-a]pyridazin-1-one], the results for the pest or weed control at 125 g/ha in assay [1], in assay [3] and in assay [4] were 40%, 50% and 20%, respectively. The pest or weed control at 500 g/ha in assay [1] turned out to be 80%; in assay [3], 100%; in assay [4], 40%. Besides, the values for the AMBEL phytotoxicity rating in assay [2] (Rate 125 g al/ha) and in assay [2] (Rate 500 g al/ha) were 100 and 95, respectively. Besides, the “phytotoxicity rating AMBEL” value was 95 in assay [5] (rate 63 g ai/ha) and 60 in assay [5] (rate 500 g ai/ha).
As to `O=c1n(-c2cc(Oc3ncccn3)c(Cl)cc2F)c(=S)n2n1CCCC2` [Compound 8-29, 2-[4-chloro-2-fluoro-5-(2-pyrimidyloxy)phenyl]hexahydro-3-thioxo-1H-[1,2,4]triazolo[1,2-a]pyridazin-1-one], the pest or weed control at 125 g/ha in assay [1], in assay [3] and in assay [4] was 100% each time. Also, the pest or weed control at 500 g/ha in assay [1], in assay [3] and in assay [4] was 100% in each case. Besides, the AMBEL phytotoxicity rating in assay [2] (Rate 125 g al/ha) and in assay [2] (Rate 500 g al/ha) was 100 throughout. The “phytotoxicity rating AMBEL” value is recorded as 90 in assay [5] (rate 63 g ai/ha) and 100 in assay [5] (rate 500 g ai/ha).
On to `Nn1c(C(F)(F)F)cc(=O)n(-c2cc(Oc3ncccc3[N+](=O)[O-])c(Cl)cc2F)c1=O` [Compound 9-1, 1-amino-3-[4-chloro-2-fluoro-5-(3-nitro-2-pyridyloxy)phenyl]-6-trifluoromethyl-1,2,3,4-tetrahydropyrimidine-2,4-dione], for which, in the assay on Grass Weeds, the “Percent Control of Grass Weeds DIGSA” value was 20%, the “Percent Control of Grass Weeds ECHCG” value turned out to be 0%, the “Percent Control of Grass Weeds SETVI” value stood at 90% and the “Percent Control of Grass Weeds SORHA” value stood at 0%. In the assay on Grass Weeds (Combination Example 2), the “Percent Control of Grass Weeds DIGSA” value is recorded as 20%, the “Percent Control of Grass Weeds ECHCG” value is 0%, the “Percent Control of Grass Weeds SETVI” value is 90% and the “Percent Control of Grass Weeds SORHA” value was 0%. For the same compound, in assay [1], the pest or weed control at 125 g/ha worked out at 95% and the pest or weed control at 500 g/ha is 100%. In assay [3], this compound registered a pest or weed control at 125 g/ha of 40% and a pest or weed control at 500 g/ha of 100%. Further, in assay [4], the pest or weed control at 125 g/ha came out at 30% and the pest or weed control at 500 g/ha was found to be 90%.
Take `Nn1c(C(F)(F)F)cc(=S)n(-c2cc(Oc3ccc(Cl)cn3)c(Cl)cc2F)c1=O` [Compound 9-28, 1-amino-3-[4-chloro-2-fluoro-5-(5-chloro-2-pyridyloxy)phenyl]-6-trifluoromethyl-1,2,3,4tetrahydro-2-oxo-4-thioxopyrimidine]: the values for the pest or weed control at 125 g/ha in assay [1], in assay [3] and in assay [4] were 20%, 70% and 50%, respectively. Moreover, the pest or weed control at 500 g/ha in assay [1] came out at 80%; in assay [3], 100%; in assay [4], 50%.

These data come from US6479435B1, “Diaryl ethers and processes for their preparation and herbicidal and desiccant compositions containing them” (ISK Americas Incorporated, priority 1997, dated 2002).
